Results from PMC11940557, “Integration of metabolomics and chemometrics with in-silico and in-vitro approaches to unravel SARS-Cov-2 inhibitors from South African plants” (PLOS One, 2025).

Molecular target: T1, SARS-CoV-2 3CLpro (3CL protease, MBP-tagged; main protease, Mpro) (Severe acute respiratory syndrome coronavirus 2, UniProt P0DTD1)
T1 construct: gene rep
Assay: fluorogenic protease substrate assay (ex […] / em […] nm)
Assay type: biochemical

Row | Compound | IC50 [µM]
1 | O=C(O)CC(=O)OC[C@H]1O[C@@H](Oc2c(-c3ccc(O)c(O)c3)oc3cc(O)cc(O)c3c2=O)[C@H](O)[C@@H](O)[C@@H]1O [quercetin 3-(6”-malonyl-glucoside)] | 0.17
2 | CC(=O)OC[C@H]1O[C@@H](Oc2c(-c3ccc(O)c(O)c3)oc3cc(O)cc(O)c3c2=O)[C@H](O)[C@@H](O)[C@@H]1O [quercetin 3-O-(6“-acetyl-glucoside)] | 0.12
3 | CC(=O)O[C@H]1[C@H](Oc2c(-c3ccc(O)c(O)c3)oc3cc(O)cc(O)c3c2=O)O[C@H](CO[C@@H]2O[C@@H](C)[C@H](O)[C@@H](O)[C@H]2O)[C@@H](O)[C@@H]1O [2”-O-acetylrutin] | 0.1
